We go through four compounds from ChEMBL document CHEMBL1201862, “PubChem BioAssay data set” (2004).

Among the test systems are 786-0; A498; HCT-15; HOP-62; HT-29; Hs-578T; K562; LOX IMVI; MOLT-4; NCI-H23; NCI-H522; NCI/ADR-RES; OVCAR-5; RPMI-8226; SK-MEL-28; SK-MEL-2; SNB-75; U-251; UACC-257; NCI-H460.
Holding throughout (assay): DTP human tumour cell line panel, 48 h

Structures are written as SMILES.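 A five-concentration, 48-hour dose response in 96-well plates underlies each endpoint, interpolated linearly between surrounding concentrations. The concentration for 50% growth inhibition is given as GI50.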 Active and inactive are the calls of the source. Rule as the data show it: active = GI50 up to about 1.1 µM and inactive = higher. A value given as a limit tells only on which side of the number the result lay.

For orientation: GI50 means the concentration at which growth is held to half of that of the control. With `Cc1ccc2c(c1)C(=O)c1ccc(C)nc1C2=O`, the GI50 in the assay with 786-0 is 85.9 µM (inactive); in the assay on A498, > 100 µM (inactive); in the assay with HCT-15, 16.9 µM; in the assay on HOP-62 it was 37.8 µM (inactive); with HT-29 it was 31.8 µM (inactive); in the assay on Hs-578T, > 100 µM (inactive). The GI50 in the assay on K562 is 48.4 µM (inactive); in the assay with LOX IMVI it was 21.9 µM (inactive); in the assay on MOLT-4, > 100 µM (inactive); with NCI-H23, 18.9 µM (inactive); with NCI-H522 it was 25.9 µM (inactive); in the assay on NCI/ADR-RES, 24 µM (inactive). Moreover, the GI50 was > 100 µM (inactive) with OVCAR-5; 43.3 µM (inactive) in the assay with RPMI-8226; 46.8 µM (inactive) in the assay with SK-MEL-28; 69.2 µM (inactive) with SK-MEL-2; 42.4 µM (inactive) in the assay with SNB-75; 32.4 µM (inactive) with U-251. In the assay on UACC-257, the GI50 was 24 µM (inactive).

In the case of `O=S(=O)(O)C(c1ccccc1)C(O)c1ccccc1` (stereo unspecified), the GI50 in the assay with 786-0 is > 100 µM (inactive); with A498 it was > 100 µM (inactive); with HCT-15, over 100 µM; in the assay with HOP-62, > 100 µM (inactive); in the assay with HT-29 it was > 100 µM (inactive); with Hs-578T it was > 100 µM (inactive). For the same compound, the GI50 in the assay with K562, in the assay on LOX IMVI, in the assay with NCI-H23, in the assay with NCI-H460, in the assay with NCI-H522 and in the assay on NCI/ADR-RES was > 100 µM (inactive) in each case. For the same compound, the GI50 in the assay with OVCAR-5, in the assay on RPMI-8226, in the assay on SK-MEL-28, in the assay with SK-MEL-2, with SNB-75 and in the assay on U-251 was > 100 µM (inactive) throughout. The GI50 in the assay on UACC-257 is 46.5 µM (inactive).

On to `Nc1nc(SCC(=O)c2ccc(Br)cc2)c2nc[nH]c2n1`, for which the GI50 in the assay with 786-0 is 42.2 µM (inactive); with A498 it was 51.6 µM (inactive); in the assay on HCT-15 it was 30.1 µM; in the assay on HOP-62, 44.9 µM (inactive); in the assay with HT-29, 44.6 µM (inactive); in the assay on Hs-578T, 21.6 µM (inactive). Besides, the GI50 with K562 is 18.1 µM (inactive); in the assay with LOX IMVI, 31.4 µM (inactive); in the assay with NCI-H23 it was 45.2 µM (inactive); in the assay on NCI-H460, 28.7 µM (inactive); in the assay with NCI-H522, 17.8 µM (inactive); with NCI/ADR-RES, 27.4 µM (inactive). Moreover, the GI50 in the assay on OVCAR-5 was 47.1 µM (inactive); with RPMI-8226 it was 17.1 µM (inactive); in the assay on SK-MEL-28, 65.2 µM (inactive); in the assay on SK-MEL-2, 32.1 µM (inactive); in the assay on SNB-75, 28 µM (inactive); in the assay on U-251 it was 44.4 µM (inactive). For the same compound, the GI50 with UACC-257 was 30.5 µM (inactive).

For the compound `O=C(NCCCCCCO)c1cccc2cc3ccccc3nc12`, the GI50 in the assay with 786-0 was 13.8 µM (inactive); in the assay with A498, > 10 µM (inactive); in the assay on HCT-15, 17.9 µM; with HOP-62, 17.9 µM (inactive); in the assay on HT-29, 17.5 µM (inactive); in the assay on Hs-578T, 25.8 µM (inactive). The GI50 in the assay on K562 was 32.4 µM (inactive); in the assay with LOX IMVI it was 16.6 µM (inactive); in the assay on MOLT-4, 16.7 µM (inactive); with NCI-H460 it was 16 µM (inactive); in the assay on NCI-H522, 13.3 µM (inactive); in the assay on NCI/ADR-RES, 36.5 µM (inactive). Besides, the GI50 in the assay with OVCAR-5 was 18.6 µM (inactive); in the assay with RPMI-8226, 16.7 µM (inactive); in the assay on SK-MEL-28 it was 20.6 µM (inactive); in the assay on SK-MEL-2, 16.1 µM (inactive); in the assay on SNB-75, 21.9 µM (inactive); with U-251 it was 38.9 µM (inactive). The GI50 with UACC-257 is 17.6 µM (inactive).
